Columns and labels:
Assay type in all cases: binding
[1] = system: soluble proteome of the human breast cancer cell line MDA-MB-231; assay: isoTOP-ABPP, residues labeled by probe 1
Protocol: (§1) STP-alkyne labeling and click chemistry. For concentration-dependent reactivity measurements by isoTOP-ABPP, 0.5 ml proteome aliquots were treated at ambient temperature with 1 mM STP-alkyne 1 (5 μl of 100 mM stock in DMSO) and 0.1 mM STP alkyne 1 (5 μl of 10 mM stock in DMSO), respectively. For competitive isoTOP-ABPP, after in vitro fragment treatment (detailed above), the samples were labeled for 1 h at ambient temperature with 0.1 mM STP-alkyne 1 (5 μl of 10 mM stock in DMSO). Samples were conjugated by copper-mediated azide-alkyne cycloaddition (CuAAC) to either the light (1 mM STP-alkyne or fragment treated) or heavy (0.1 mM STP-alkyne or DMSO treated) TEV tags (10 μl of 5 mM stocks in DMSO, final concentration=100 μM) using tris(2-carboxyethyl)phosphine hydrochloride
Peptide and protein identification. The MS2 spectra were extracted from the raw file using RAW Xtractor. MS2 spectra were searched using the ProLuCID algorithm using a reverse concatenated, nonredundant variant of the Human UniProt database (release-2012_11). Cysteine residues were searched with a static modification for carboxyamidomethylation (+57.02146). For all competitive and reactivity profiling experiments, lysine residues were searched with up to one differential modification for either the light or heavy TEV tags (+464.2491 or +470.26331, respectively). Peptides were required to have at least one tryptic terminus and to contain the TEV modification. ProLuCID data was filtered through DTASelect (version 2.0) to achieve a peptide false-positive rate below 1%.
Differential labeling analysis of residues labeled by probe 1. For analysis of the residues labeled by probe 1, peptide and protein identification was conducted as detailed above with differential modification for either the light or heavy TEV tags (+464.2491 or +470.26331, respectively) allowed on lysine, arginine, aspartate, glutamate, histidine, serine, threonine, tyrosine, asparagine, glutamine and tryptophan. Cysteine was searched with a differential modification for either the light or heavy TEV tags (+413.24185 and +407.22764, respectively).
To assess the scope and selectivity with which 1 reacted with lysine residues in human cell proteomes, initial isoTOP-ABPP experiments were performed as follows. Two equal amounts of the soluble proteome of the human breast cancer cell line MDA-MB-231 (0.75 mg of protein per sample) were treated with 1 (100 μM, 1 h), and then conjugated by copper-catalyzed azide-alkyne cycloaddition (CuAAC) to isotopically differentiated TEV-cleavable, azide-biotin tags (heavy and light, respectively). The heavy and light-tagged samples were then combined, and 1-labeled proteins enriched by streptavidin and proteolytically digested sequentially with trypsin and TEV protease (to release 1-labeled tryptic peptides from the streptavidin support), furnishing isotopic (heavy/light) peptide pairs that were analyzed by multidimensional liquid chromatography-MS(LC/LC-MS/MS). Measurement of the MS1 chromatographic peak ratios for light/heavy peptide pairs provided an isoTOP-ABPP ratio or R value, which centered on about 1.0 for the more than 5000 probe 1-labeled peptides quantified in this initial study. […] Because lysine modification creates a missed trypsin cleavage site, the fractions of alternative amino-acid modification assignments were further assessed for their occurrence on peptides harboring a missed lysine cleavage site. […]

[2] = biological target: T1, lysine residues in human cell proteomes (MDA-MB-231, Ramos, Jurkat) (Homo sapiens, UniProt Q9NVS9); assay: isoTOP-ABPP lysine reactivity profiling (0.1 vs 1 mM probe 1); details: PNPO K100; 1 mM vs 0.1 mM probe 1
T1 construct: endogenous in cells; host or cells: MDA-MB-231, Ramos, Jurkat lysates
Protocol: as §1
(§2) R value calculation and processing. The ratios of light and heavy MS1 peaks for each unique peptide were quantified with a CIMAGE software using default parameters (3 MS1 acquisitions per peak and signal to noise threshold set to 2.5). For reactivity measurements by isoTOP-ABPP, the R value was calculated from the ratio of MS1 peak areas, comparing the 1 mM STP alkyne sample (light TEV tag) with the 0.1 mM STP alkyne sample (heavy TEV tag). For competitive isoTOP-ABPP, the R value was calculated from the ratio of MS1 peak areas, comparing the DMSO treated sample (heavy TEV tag) with the compound treated sample (light TEV tag). […] Ratios for unique peptide entries are calculated for each experiment; overlapping peptides with the same modified lysine (for example, different charge states, MudPIT chromatographic steps or tryptic termini) are grouped together and the median ratio is reported as the final ratio (R). The peptide ratios reported by CIMAGE were further filtered to ensure the removal or correction of low-quality ratios in each individual data set. […]
(§3) Cross-data processing for reactivity profiling. For reactivity profiling, the median of biological replicates of the same condition and cell-line was calculated. For peptides containing several possible modified lysines, the lysine with the highest number of quantification events was used for analysis and the remaining, redundant peptides were reported as alternative modification sites. Peptides were required to be detected in at least one 1 mM vs 0.1 mM and one 0.1 mM vs 0.1 mM data set with the latter R value being smaller than 2.5. […] If the lysine was not detected in any soluble fraction, the R value from the membrane fraction was taken. Additionally, all membrane-only lysines with reactivity values were further required to have been detected in at least one 0.1 mM vs 0.1 mM membrane profiling experiment. […]
(§4) Here, the intrinsic reactivity of lysine residues was assessed in human cell proteomes. In brief, proteomes from three human cancer cell lines were treated (MDA-MB-231, Ramos, and Jurkat cells) with low vs high concentrations of probe 1 (0.1 vs 1 mM, n=4 per group) for 1 h and then analyzed the samples by isoTOP-ABPP, wherein high, medium, and low reactivity lysines were distinguished by their respective isotopic ratio values (R10:1<2, 2<R10:1<5, R10:1>5, respectively). […]

[3] = system: lysine residues in human cell proteomes (MDA-MB-231, Ramos, Jurkat); assay: as above
Protocol: as §1, §2, §3, §4

[4] = 1 100 μM, 1 h, pilot experiment

T1 sequence (Q9NVS9 whole entry): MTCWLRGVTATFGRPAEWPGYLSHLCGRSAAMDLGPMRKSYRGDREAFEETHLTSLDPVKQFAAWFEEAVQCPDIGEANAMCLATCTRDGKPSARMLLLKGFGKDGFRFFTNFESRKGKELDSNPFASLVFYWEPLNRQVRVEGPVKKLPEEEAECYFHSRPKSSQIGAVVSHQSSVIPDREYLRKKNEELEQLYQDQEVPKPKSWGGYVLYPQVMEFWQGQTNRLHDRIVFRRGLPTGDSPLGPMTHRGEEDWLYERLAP

C#CCCC(=O)Oc1c(F)c(F)c(S(=O)(=O)[O-])c(F)c1F.[Na+] [probe 1, reference compound]
reactivity and selectivity for lysine residues in the human proteome ([1]; 1 100 μM): broad reactivity and good selectivity for lysine residues
probe 1-labeled peptides quantified ([1]; 1 100 μM, 1 h): more than 5000
1-labeled peptides assigned as uniquely modified on lysine residues [1, 4]: > 52%
remaining 1-labeled peptides assigned with lysine modifications as well as alternative residue modifications [1, 4]: 54%
probe 1 modifications assigned to serine, of the total 1-labeled peptides ([1]; after filtering missed lysine cleavage events): about 8%
R10:1 lysine reactivity ratio [2]: 0.7
selectivity for lysine modification over other amino acids ([3]; 1 mM probe): excellent selectivity for lysine modification over other amino acids
hyper-reactive lysines (R10:1 <2), total residues ([3]; 0.1 vs 1 mM probe 1, 1 h): 310
quantified lysines with R10:1 values = 10 (low intrinsic reactivity) ([3]; 0.1 vs 1 mM probe 1, 1 h): > 50%
quantified lysines with hyper-reactivity with probe 1 (R10:1 values <2) ([3]; 0.1 vs 1 mM probe 1, 1 h): < 10%

— patent US20210255193A1, “LYSINE REACTIVE PROBES AND USES THEREOF” (The Scripps Research Institute, priority 2017, published 2021)
